Data on one molecule can be found in patent publication US7894880B2, “Measurement of renal extraction fraction using contrast enhanced computed tomography” (The Board of Trustees of the Leland Stanford Junior …, priority 2003, dated 2011).

This data set in a line: Renal extraction fraction by contrast enhanced CT after iohexol injection (retrospective study). The data set is classed as in vivo, adult patients. An excerpt:
[formula] where CA is the concentration of a filtration marker in the systemic arterial blood entering the kidney, and CV is the corresponding concentration in the renal venous blood. Standard radiographic contrast agents, including iothalamate and iohexol, may be used as filtration markers since they are freely filtered by the kidney, and neither secreted nor reabsorbed. Assuming linear increase in CT number with concentration of contrast agent, CA will be proportional to the increase in CT number of the systemic arterial blood following contrast injection, or CTA-CTPRE, where CTPRE and CTA are the pre- and post- contrast CT numbers of the systemic arterial blood. Similarly, CTV will be proportional to CTV-CTPRE, where CTV is the post-contrast CT number of a renal vein. Substituting into equation [1] yields: […]
In a retrospective study, CT scans of 10 adult patients (mean age 58.1 years, 7 female) having no known renal disease, and one patient with unilateral renal obstruction were studied. All patients had precontrast scans followed by injection of 120 ml. of iohexol (Omnipaque 350, Amersham Health, Princeton, N.J.) at 2 ml/sec., and enhanced scans through the kidney vasculature, delayed for 3 to 5 minutes after the end of the contrast injection. CT section thickness varied from 2.5 mm to 5 mm. Pre- and post-contrast delayed images were evaluated using ROI measurements taken within the abdominal aorta in the region of the renal vessels, and within right and left renal veins. Multiple measurements, one from each of several axial scans, within each vessel were obtained, varying from 2 to 4 measurements for each renal vein, and 4-8 measurements for the abdominal aorta. Mean CT number values were subsequently computed for each vessel. EF values for the right and left kidneys in each subject were then computed for each patient using equation [2] above. Propagation of error was used to estimate the standard deviation in the computed EF values, as expressed in:
[formula] where σ^2CTA, σ^2CTV, and σ^2CTPRE are the variances in the mean values for each region.

Where [1] appears, read: 10 patients with no history of renal disease, weighted by the inverse of the variance.
Where [2] appears, read: individual normal subjects (no known renal disease), one line per patient, 120 ml iohexol at 2 ml/sec, scans delayed 3 to 5 minutes after injection.
Where [3] appears, read: patient with unilateral renal obstruction.

Each structure is given as a SMILES string. Values joined by “and” are separate entries in the source; they are usually repeats but may differ in a detail not shown here. Equal entries are not always repeated.

`CC(=O)N(CC(O)CO)c1c(I)c(C(=O)NCC(O)CO)c(I)c(C(=O)NCC(O)CO)c1I` (stereo not drawn) [iohexol]: under setting [1], the “Left renal EF, weighted mean ± SD” value stood at 12.3±1.3% and the “Right renal EF, weighted mean ± SD” value was 12.6±1.0%. In addition, under setting [2], the “Left Renal EF (calculated extraction fraction ± s.d.)” value is 7.7 ± 6.3% and 9.1 ± 1.5% and 7.8 ± 2.6% and 21.1 ± 1.7% and 22.2 ± 3.0% and 8.3 ± 1.9% and 17.7 ± 4.7% and 8 ± 3.2% and 7.7 ± 3.1% and 7.7 ± 5.3%; the “Right Renal EF (calculated extraction fraction ± s.d.)” value is 8.3 ± 9.6% and 16.2 ± 11.6% and 7.6 ± 1.6% and 16.8 ± 3.4% and 16.7 ± 2.2% and 8 ± 5.4% and 16.2 ± 4.6% and 10.6 ± 4.5% and 18.8 ± 2.8% and 13.3 ± 3.1%. Further, under setting [3], the “EF in the obstructed left kidney” value stood at 9.7±4.0% and the “EF in the unobstructed right kidney” value worked out at 29.6±5.6%.
